Measured values published in patent US6855546B1, “Controlling availability or activity of proteins by use of protease inhibitors or receptor fragments” (Universiteit Utrecht, priority 1999, dated 2005).
Where a SMILES comes first, the peptide text is derived from it. The star is where a group is joined. Cbz = O=C(OCc1ccccc1)*

Assays:
Type in all cases: cell-based, Chinese hamster
[1] = tested on: CHO-ts20 cells expressing GHR; assay: 125I-GH uptake (internalization) kinetic experiment; conditions: inhibitor 20 mM added 3 hours before; 125I-GH 8 nM bound on ice, incubated at 30° C.
Description: FIG. 2. […] CHO-ts20 cells were incubated with or without inhibitors for 3 hours at 30° C., and put on ice for 60 minutes with ^125I-GH. The cells were then incubated at 30° C. as indicated. Background label was determined in untransfected cells and subtracted. Plotted are the amounts of ^125I-GH internalized as a percentage of the cell-associated radioactivity at the start of incubation. □, control (1% ethanol); ●, MG132; ◯, lactocystin; X, lactacystin β-lactone.
To confirm and quantify the effect of the proteasome inhibitors, we measured the uptake of ^125I-GH in a kinetic experiment. Cells were pretreated with the inhibitors, ^125I-GH was bound on ice, and cells were incubated for various periods of time (FIG. 2). At the end of the incubation period, uptake was determined by washing the cells at low pH to remove the label from the cell surface. Again, GH uptake was inhibited by the proteasome inhibitors: MG132 and lactacystin b-lactone reduced the uptake to approximately 25% of the control level. […] TCA-soluble radioactivity in the culture medium, derived from lysosomal degradation of ^125I-GH, increased after 15 minutes if no inhibitor was added; virtually no TCA-soluble radioactivity appeared if the inhibitors were present (not shown).
GH binding and internalization. ^125I-hGH was prepared using chloramine T (28). For internalization studies, cells were grown in 35 mm dishes, washed with aMEM, supplemented with 20 mM HEPES, incubated for 1 hour at 30° C. in aMEM/HEPES, ^125I-GH (8 nM) was bound on ice for 60 minutes in the absence or presence of excess unlabeled GH, and the cells were washed free of unbound GH and incubated for 0 to 60 minutes. If indicated, lactacystin or its b-lactone (20 mM), MG132 (20 mM), and ZL3vinylsulfone (20 mM), dissolved in either ethanol or dimethylsulfoxide, or only vehicle, were added 3 hours before the start of the experiment. Membrane-associated GH was removed by acid wash (0.15 M NaCl, 0.05 M glycine, pH 2.5) (29) and internalized GH was determined by measuring the radioactivity after solubilization of the acid-treated cells by 1 M NaOH.

[2] = tested on: CHO-ts20 cells expressing the rabbit GHR; assay: Cy3-GH endocytosis by confocal microscopy, wild-type GHR; conditions: 20 mM inhibitor 3 hours at 30° C., then Cy3-GH 30 minutes
Description: FIG. 1. Effect of proteasome inhibitors on Cy3-GH and Cy3-transferrin endocytosis. CHO-ts20 cells, expressing either wild-type (A, D, G, C, F, I) or truncated GHR (B, E, H), were incubated with vehicle (A-C) or with 20 mM MG132 (D-F) or 20 mM lactacystin (G-I) for 3 hours at 30° C.; then Cy3-GH (A, B, D, E, G, H), or Cy3-transferrin (C, F, I) were added for 30 minutes, and the cells were washed, fixed and the fluorescence was visualized by confocal microscopy. If excess labeled ligand was added, no uptake was observed. If the cells in D, G were treated at pH 2.5 before fixation, virtually no label was visible (not shown).
Down-regulation of signal-transducing membrane receptors is part of highly programmed cascades of events leading both to extinction of the signaling pathway(s) and to rapid degradation of the primary messenger: the receptor and its ligand (3, 4, 5, 6, 7). In the absence of ligand, the half-life of GHR is approximately 1 to 2 hours depending on the cell system used. The assumption is that this is mainly due to a proteolytic cleavage in the extracellular domain of the GHR resulting in soluble GH-binding protein (8). If ligand is present, a completely different scenario follows: two GHR polypeptides dimerize, they are phosphorylated by the tyrosine kinase Jak2 and ubiquitinated, and the complex is endocytosed. […]

[3] = tested on: mature GHR in CHO-ts20 cells; assay: 35S-methionine pulse-chase of GHR in the presence of GH; conditions: 16 nM GH
Description: FIG. 3. Effect of MG132 on GHR degradation in the presence of ligand. A. Cells were pulse labeled with ^35S-methionine and then chased in unlabeled methionine in the presence of 16 nM GH with or without MG132 for the times indicated. GHR was immunoprecipitated using an anti-cytosolic tail antibody. The radioactivity in the mature (upper) band (inset) was quantitated and plotted. □, control (1% ethanol); ●, MG132. B. Cells were biotinylated and incubated in the presence of GH with MG132 or with vehicle only at 30° C. for the time periods indicated. After streptavidin-bead purification aliquots of the cell lysates were analyzed by SDS-PAGF; western blots were incubated with a monoclonal antibody specific for the extracellular GHR domain and detected with enhanced chemifluorescence. […]
If proteasome inhibitors affect GHR-uptake, it is expected that the inhibitors prolong the lifetime of GHRs at the cell surface. To address this, we measured the effect of MG132 in a pulse-chase experiment. […] To assess the effect of MG132 more directly, we measured degradation of cell-surface biotinylated GHR after incubation in the presence of ligand (FIG. 3B). […]
Metabolic labeling. […] The radioactivity was determined using a Molecular Dynamics phosphoimager (STORM860 equipped with ImageQuant software, Molecular Dynamics, Sunnyvale, Calif.). […]

[4] = tested on: cell-surface GHR in CHO-ts20 cells; assay: Degradation of cell-surface biotinylated GHR
Description: FIG. 3. Effect of MG132 on GHR degradation in the presence of ligand. A. Cells were pulse labeled with ^35S-methionine and then chased in unlabeled methionine in the presence of 16 nM GH with or without MG132 for the times indicated. GHR was immunoprecipitated using an anti-cytosolic tail antibody. The radioactivity in the mature (upper) band (inset) was quantitated and plotted. □, control (1% ethanol); ●, MG132. B. Cells were biotinylated and incubated in the presence of GH with MG132 or with vehicle only at 30° C. for the time periods indicated. After streptavidin-bead purification aliquots of the cell lysates were analyzed by SDS-PAGF; western blots were incubated with a monoclonal antibody specific for the extracellular GHR domain and detected with enhanced chemifluorescence. The sharp band below the mature GHR (130 kDa) originated from a slight background staining of precursor GHR (110 kDa), due to incomplete removal of biotinylation reagent at cell lysis.
If proteasome inhibitors affect GHR-uptake, it is expected that the inhibitors prolong the lifetime of GHRs at the cell surface. To address this, we measured the effect of MG132 in a pulse-chase experiment. […] To assess the effect of MG132 more directly, we measured degradation of cell-surface biotinylated GHR after incubation in the presence of ligand (FIG. 3B). […] However, clearance from the cell surface was reduced >50% in the presence of MG132. […] The lifetime of this species was extended in the presence of MG132. Attempts to accumulate this species or other degradation products failed until now.
Cell surface biotinylation. CHO-ts20 cells, grown in 35 mm dishes, were incubated for 60 minutes at 30° C. in aMEN/HEPES, biotinylated on ice for 30 minutes using sulfo-NHS-SS-biotin (Pierce, Rockford, Ill.), and washed free of biotinylating reagents. For GH binding, the cells were incubated for 1 hour on ice in the presence of 16 nM GH with either 20 mM MG132 or 1% ethanol. The incubation was continued at 30° C. for various time periods in the presence of GH with MG132 or ethanol only. […]

[5] = tested on: GHR in CHO-ts20 cells (temperature-sensitive E1); assay: GH-induced GHR degradation, quantitative western blot, CHO-ts20; conditions: 3 hours
Description: (§1) FIG. 4. GH-induced receptor degradation depends on an intact ubiquitin conjugation system. CHO-ts20 and CHO-E36 cells were incubated at the permissive or non-permissive temperature for 3 hours in the presence or absence of GH. Cells were lysed and aliquots were analyzed by western blotting and enhanced chemifluorescence. M, mature GHR, P, precursor GHR.
(§2) To investigate whether the ubiquitin system selects the GHR for truncation by the proteasome, we expressed the receptor in CHO-ts20 cells harboring a temperature-sensitive ubiquitin-activating enzyme, E1. The cells were incubated for 60 minutes at 42° C. (sufficient to stop generation of newly ubiquitinated proteins), followed by 3 hours at 40° C. in the presence or absence of GH, and the amounts of GHR were determined by quantitative western blot analysis (FIG. 4). At the permissive temperature, incubation in the presence of GH decreased the steady-state amounts of GHR. If the cells were kept at 40° C. in the presence of GH, the amount of GHR increased to 170%. To ascertain that this increase is solely due to a defective ubiquitin conjugation system, we used the CHO-E36 cells with an intact ubiquitin conjugation system at 40° C. As expected, in these cells the steady state of mature GHR decreased to approximately 50% of that without GH, both at 30 and 40° C. […]

GHR in CHO-E36 cells = assay: GH-induced GHR degradation, quantitative western blot, CHO-E36; conditions: CHO-E36, both at 30 and 40° C.
Description: as §1, §2

Molecule: CC(C)C[C@@H](C=O)NC(=O)[C@H](CC(C)C)NC(=O)[C@H](CC(C)C)NC(=O)OCc1ccccc1 [MG132] (Cbz-Leu-Leu-Leu-aldehyde)
- 125I-GH uptake relative to control [1]: approximately 25 % of the control level
- Cy3-GH uptake (intracellular fluorescent label) [2]: hardly any label was present intracellularly
- degradation rate of mature GHR [3]: affects the degradation rate of mature GHR
- membrane transport from ER to the Golgi complex (maturation kinetics 110 kDa to 130 kDa) [3]: does not affect membrane transport from ER to the Golgi complex
- lifetime of biotinylated 85-kDa intermediate degradation product ([4]; in the presence of GH): extended
- reduction of GHR clearance from the cell surface ([4]; in the presence of GH (16 nM), 20 mM MG132, 30° C.): > 50%

Molecule: CC(C)[C@H](O)[C@@]12NC(=O)[C@H](C)[C@@H]1OC2=O [lactacystin b-lactone]
- 125I-GH uptake relative to control [1]: approximately 25 % of the control level

Molecule: CC(=O)N[C@@H](CSC(=O)[C@]1([C@@H](O)C(C)C)NC(=O)[C@H](C)[C@@H]1O)C(=O)O [lactacystin]
- 125I-GH uptake relative to control [1]: somewhat less effective
- Cy3-GH uptake (intracellular fluorescent label) [2]: hardly any label was present intracellularly

Molecule: GH: growth hormone, ligand of the growth hormone receptor
- amount of GHR in the presence of GH (percentage of mature GHR present without GH) ([5]; CHO-ts20, 40° C. (non-permissive)): 170%
- steady-state amount of GHR in the presence of GH ([5]; CHO-ts20, permissive temperature): decreased
- steady state of mature GHR relative to that without GH (GHR in CHO-E36 cells): approximately 50%
- disappearance of cell-surface biotinylated GHR ([4]; incubation in the presence of ligand, 30° C.): induced a rapid disappearance of the GHR
